Results on one molecule are retold here after PMC8067754, “Active Transport of Hepatotoxic Pyrrolizidine Alkaloids in HepaRG Cells” (International Journal of Molecular Sciences, 2021).

SMILES strings stand for the structures. Several values for one entry are separate records, joined by “and”; a condition that tells them apart may be missing. Identical values can stand only once. Like-named read-outs stand apart in the source and are kept apart here.

Data set [1] can be described thus: Cell viability (MTT assay) of HepaRG cells with and without transporter inhibitors. In kind it is cell-based, human. The settings on record: human, HepaRG cells. How it is done: (§1) In the case of TEA, cells were pre-incubated 24 h prior to PA treatment. The inhibitors were applied anew at PA incubation.
(§2) To analyze the cytotoxic effects of PAs on HepaRG cells with non-inhibited and inhibited hepatic transporters, the cells were seeded at a density of 9000 cells per well in the inner 60 wells of a 96-well plate and cultivated as described in Section 4.2. After four weeks of cultivation, FBS concentration in the cell culture medium was reduced to 2% for 48 h prior incubation. Thereby, inhibitory effects of peptide growth factors from the FBS on xenobiotic-metabolizing enzymes were minimized. […] The cells were pre-incubated with pharmacological inhibitors as described in Section 4.3. […] Cell viability was analyzed via the MTT test. 10 µl MTT reagent (5 mg/mL MTT dissolved in phosphate-buffered saline, PBS) was added per well and incubated for 1 h at 37 °C. The supernatant was discarded, and the violet formazan crystals dissolved in 130 µL desorption solution (0.7% sodium dodecyl sulfate in propan-2-ol). After shaking for 20 min (under protection from light), absorbance was measured on a TecanM200Pro spectrometer (Tecan Group Ltd., Männedorf, Switzerland) at a wavelength of 570 nm, along with a reference wavelength of 630 nm.
On the technique in general: Formazan colour is commonly taken as a measure of viable cells.

For the next data set, the system named is HepaRG cells. The description is as above. In kind it is cell-based, human. As to conditions: for viability [%], single replicates: repl. 1-6; for Cell viability (MTT), percent of solvent control, Mean [%]: 24 h, listed as Sc. The procedure:
as §1, §2

The mark [2] stands for this setting: mean of 6 replicates, no inhibitor, read-out: viability, MW [%].
Setting [3] is: repl. 1-6, read-out: viability [%], single replicates.

As a reminder, the viability is a read-out of living cells in per cent, often relative to untreated cells.

`C/C=C1/C[C@@H](C)[C@@](C)(O)C(=O)OCC2=CCN3CC[C@@H](OC1=O)[C@@H]23` [Senecionine, senecionine]: the viability at 24 h, 1 µM was 100% in data set [1] (setting [2]) and 95.1% in data set [1] (setting [3]). The figures for the viability at 24 h, 10 µM in data set [1] (setting [2]) and in data set [1] (setting [3]) were 84.6% and 80%, respectively. The viability at 24 h, 50 µM in data set [1] (50 µM, mean of 6 replicates, no inhibitor, read-out: viability, MW [%]) was 65%. The viability at 24 h, 100 µM in data set [1] (100 µM, mean of 6 replicates, no inhibitor, read-out: viability, MW [%]) came out at 59.7%. For the same molecule, the viability at 24 h, 250 µM came to 48.7% in data set [1] (250 µM, mean of 6 replicates, no inhibitor, read-out: viability, MW [%]); 46% in data set [1] (HepaRG, 250 µM PA only, 24 h, read-out: Cell viability (MTT), percent of solvent control, Mean [%]); 46.5% in data set [1] (with 5 µM Ko143, HepaRG, 250 µM PA + Ko143 (5 µM, 1 h pre-incubation), 24 h, read-out: Cell viability (MTT), percent of solvent control, Mean [%]); 59.1% in data set [1] (with 50 µM MK-571, HepaRG, 250 µM PA + MK571 (50 µM, 1 h pre-incubation), 24 h, read-out: Cell viability (MTT), percent of solvent control, Mean [%]); 63% in data set [1] (with CsA 10 µM, HepaRG, 250 µM PA + CsA (10 µM, 1 h pre-incubation), 24 h, read-out: Cell viability (MTT), percent of solvent control, Mean [%]); 90% in data set [1] (with Qu 100 µM, HepaRG, 250 µM PA + Qu (100 µM, 1 h pre-incubation), 24 h, read-out: Cell viability (MTT), percent of solvent control, Mean [%]). In data set [1] (with TEA 3 mM, HepaRG, 250 µM PA + TEA (3 mM, 24 h pre-incubation), 24 h, read-out: Cell viability (MTT), percent of solvent control, Mean [%]), the viability at 24 h, 250 µM came to 69%. Further, the “viability [%], single replicates” value with HepaRG cells (1 µM) is 104.702% and 96.5101% and 108.622% and 97.0096% and 97.8347%; in the data set on HepaRG cells (10 µM) it was 86.1735% and 91.8709% and 86.9963% and 83.2717% and 79.1258%; in the data set on HepaRG cells (50 µM), 59.5192% and 77.2207% and 70.6602% and 63.183% and 55.3454%; in the data set on HepaRG cells (100 µM), 53.5295% and 51.7769% and 80.0886% and 68.6733% and 54.6212% and 49.5185%; with HepaRG cells (250 µM) it was 44.9713% and 47.0747% and 66.5507% and 52.719% and 45.8871% and 35.0536%. For the same molecule, the “cytotoxicity of the applied concentration” value with HepaRG cells (HepaRG, 2.5 µM, Figure S2) is on record as “not cytotoxic”. Besides, the “Cell viability (MTT), percent of solvent control, Mean [%]” value in the data set on HepaRG cells (HepaRG, 250 µM PA + CsA (10 µM, 1 h pre-incubation)) turned out to be 63.5771%; in the data set with HepaRG cells (HepaRG, 250 µM PA + Qu (100 µM, 1 h pre-incubation)), 91.9218%; in the data set with HepaRG cells (HepaRG, 250 µM PA + TEA (3 mM, 24 h pre-incubation)) it was 69.5844%; in the data set on HepaRG cells (HepaRG, 250 µM PA only) it was 46.8929%.
